These results are taken from BindingDB's records for patent US10052306 (CADENT THERAPEUTICS, INC., 2018).

The IC50 is the concentration that inhibits the measured activity by half. A higher IC50 goes with lower potency.

In the assay the target is Glutamate receptor ionotropic, NMDA 2B (Homo sapiens, UniProt Q13224). The experiment in a line: FDSS Assay.
Glutamate receptor ionotropic, NMDA 2B, sequence (Q13224 whole entry): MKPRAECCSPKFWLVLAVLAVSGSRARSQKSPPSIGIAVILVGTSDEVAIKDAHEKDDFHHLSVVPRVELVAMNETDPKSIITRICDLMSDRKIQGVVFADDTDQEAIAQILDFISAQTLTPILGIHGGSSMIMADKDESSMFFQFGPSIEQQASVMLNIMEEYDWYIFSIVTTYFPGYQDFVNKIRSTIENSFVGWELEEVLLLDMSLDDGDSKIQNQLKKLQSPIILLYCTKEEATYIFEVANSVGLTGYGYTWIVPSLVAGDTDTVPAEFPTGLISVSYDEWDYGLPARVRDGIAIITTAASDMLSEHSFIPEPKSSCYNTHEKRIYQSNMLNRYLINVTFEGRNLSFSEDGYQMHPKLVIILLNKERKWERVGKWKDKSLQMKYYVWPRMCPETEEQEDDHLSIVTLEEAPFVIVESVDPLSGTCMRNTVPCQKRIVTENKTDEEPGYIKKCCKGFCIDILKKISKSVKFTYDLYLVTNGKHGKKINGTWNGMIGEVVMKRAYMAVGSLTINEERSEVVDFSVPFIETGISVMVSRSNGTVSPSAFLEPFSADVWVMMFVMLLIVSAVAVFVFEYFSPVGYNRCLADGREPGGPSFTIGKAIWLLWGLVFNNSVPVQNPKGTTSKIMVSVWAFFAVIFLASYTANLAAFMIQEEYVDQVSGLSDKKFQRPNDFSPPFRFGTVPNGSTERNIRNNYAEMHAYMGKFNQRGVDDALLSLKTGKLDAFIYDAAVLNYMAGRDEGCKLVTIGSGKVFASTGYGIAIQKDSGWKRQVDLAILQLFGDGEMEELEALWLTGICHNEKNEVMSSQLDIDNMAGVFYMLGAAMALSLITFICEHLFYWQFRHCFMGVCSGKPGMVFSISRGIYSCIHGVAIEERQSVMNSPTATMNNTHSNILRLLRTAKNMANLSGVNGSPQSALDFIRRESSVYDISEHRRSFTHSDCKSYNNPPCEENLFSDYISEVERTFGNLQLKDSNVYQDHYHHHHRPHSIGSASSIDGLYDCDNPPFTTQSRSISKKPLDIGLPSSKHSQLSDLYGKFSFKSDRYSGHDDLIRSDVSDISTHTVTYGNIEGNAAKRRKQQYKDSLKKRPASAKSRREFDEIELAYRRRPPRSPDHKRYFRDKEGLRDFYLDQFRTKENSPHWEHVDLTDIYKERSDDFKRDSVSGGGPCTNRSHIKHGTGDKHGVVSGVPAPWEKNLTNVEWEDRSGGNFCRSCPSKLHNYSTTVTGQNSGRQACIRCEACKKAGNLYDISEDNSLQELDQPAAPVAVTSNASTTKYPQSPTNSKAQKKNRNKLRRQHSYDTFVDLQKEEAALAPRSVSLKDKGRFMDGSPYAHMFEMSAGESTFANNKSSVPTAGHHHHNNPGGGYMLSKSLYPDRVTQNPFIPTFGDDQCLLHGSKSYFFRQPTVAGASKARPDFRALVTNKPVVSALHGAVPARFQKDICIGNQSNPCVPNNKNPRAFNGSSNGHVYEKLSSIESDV

Experimental: To each well of the plate, 10 μL test compound, control (MK801) or HHnoCa buffer was added to a final concentration of 10 μM with a final concentration of DMSO of 0.1%. Following 10 minutes pre-incubation in the dark, plates are loaded onto the Hamamatsu FDSS 6000. After collecting baseline fluorescence images, 3 μM glutamate, 3 glycine, and 1 mM Ca2+ in HHnoCa buffer is added to each well, and Ca2+ is recorded for 3 minutes. Data were processed by computing ratio of fluorescence at the end of data collection to baseline fluorescence to assess degree of Ca′ influx inhibition relative to that observed in MK801.

With `O=C(CN1C[C@@H]2C[C@@](O)(c3ccccc3)C[C@@H]2C1)c1ccc(O)cc1` [US10052306, 65], the concentration for half-maximal inhibition (IC50) amounted to 10 µM. This lies in the double-digit micromolar range.
